Data on 62 compounds can be found in ChEMBL document CHEMBL4651402, “Screening of ~5500 FDA-approved drugs and clinical candidates for anti-SARS-CoV-2 activity” (2021).

pIC50: −log10 of the molar value.

The assay relates to SARS-CoV-2. Briefly: microbe, parasite or virus in culture. As to conditions: Severe acute respiratory syndrome coronavirus 2, Vero C1008, 48 h; for IC50: read-out: pIC50 (converted).

Regarding `CN[C@H](CC(C)C)C(=O)N[C@H]1C(=O)N[C@@H](CC(N)=O)C(=O)N[C@H]2C(=O)N[C@H]3C(=O)N[C@H](C(=O)N[C@H](C(=O)O)c4cc(O)cc(O)c4-c4cc3ccc4O)[C@H](O[C@H]3C[C@](C)(N)[C@@H](O)[C@H](C)O3)c3ccc(c(Cl)c3)Oc3cc2cc(c3O[C@@H]2O[C@H](CO)[C@@H](O)[C@H](O)[C@H]2O[C@H]2C[C@](C)(NCc3ccc(-c4ccc(Cl)cc4)cc3)[C@@H](O)[C@H](C)O2)Oc2ccc(cc2Cl)[C@H]1O` [ORITAVANCIN], the negative logarithm of the IC50 (pIC50) was less than 4.70 and the IC50 was greater than 20 µM.
Consider `CCCCCCCCCCC[C@@H](C[C@@H]1OC(=O)[C@H]1CCCCCC)OC(=O)[C@H](CC(C)C)NC=O` [ORLISTAT], for which the pIC50 is less than 4.70 and the IC50 was greater than 20 µM.
Regarding `Cc1ncc([N+](=O)[O-])n1CC(O)CCl` (centres undefined) [ORNIDAZOLE], the pIC50 is less than 4.70 and the IC50 is greater than 20 µM.
With `NCCCC(N)C(=O)O` (centres undefined) [ORNITHINE aKETOGLUTARATE], the pIC50 was less than 5.00 and the IC50 is greater than 10 µM.
With `O=C(O)c1cc(=O)[nH]c(=O)[nH]1` [OROTIC ACID], the pIC50 was less than 4.70 and the IC50 is greater than 20 µM.
With `Cc1ccccc1C(OCCN(C)C)c1ccccc1` (centres undefined) [ORPHENADRINE], the pIC50 was less than 4.70 and the IC50 was greater than 20 µM.
`CCOC(=O)c1c(C)cc(O)cc1O` [ORSELLINIC ACID, ETHYL ESTER]: the pIC50 was less than 4.70 and the IC50 was greater than 20 µM.
Take `CC(C)=CCc1c2c(c3occ(-c4ccc(O)cc4)c(=O)c3c1O)C=CC(C)(C)O2` [OSAJIN]: the pIC50 was less than 4.70 and the IC50 is greater than 20 µM.
For `O=C(Nc1ccc(O)cc1)c1ccccc1O` [OSALMID] the same measures were less than 4.70 and greater than 20 µM.
For `CC(=O)N(C)C1(c2ccccc2)CCN(CCC[C@]2(c3ccc(Cl)c(Cl)c3)CCCN(C(=O)c3ccccc3)C2)CC1` [OSANETANT], the pIC50 is less than 4.70 and the IC50 was greater than 20 µM.
As to `CCOC(=O)C1=C[C@@H](OC(CC)CC)[C@H](NC(C)=O)[C@@H](N)C1` [OSELTAMIVIR], the pIC50 is less than 4.70 and the IC50 is greater than 20 µM.
As for `COc1cccc2cc(-c3nc([C@H]4CC[C@H](C(=O)O)CC4)n4ncnc(N)c34)[nH]c12` [OSI-027], the pIC50 was less than 4.70 and the IC50 was greater than 20 µM.
For the compound `O=C(Nc1ccc(OC(F)(F)F)cc1)c1sccc1NCc1ccnc2ccccc12` [OSI-930], the pIC50 was less than 4.70 and the IC50 was greater than 20 µM.
With `CCN(CC)CC1CCCCN1CC(=O)N1c2ccccc2C(=O)Nc2cccnc21` (centres undefined) [OTENZEPAD], the negative-log IC50 (pIC50) was less than 4.70 and the IC50 was greater than 20 µM.
In the case of `C[C@@H]1O[C@@H](O[C@H]2C[C@@H](O)[C@]3(CO)[C@H]4[C@H](O)C[C@]5(C)[C@@H](C6=CC(=O)OC6)CC[C@]5(O)[C@@H]4CC[C@]3(O)C2)[C@H](O)[C@H](O)[C@H]1O` [OUABAIN], the pIC50 is less than 4.70 and the IC50 is greater than 20 µM.
`CC(=O)N1C[C@H](O)C[C@H]1C(=O)O` [OXACEPROL]: the pIC50 was less than 4.70 and the IC50 was greater than 20 µM.
Consider `O=C(O)C(=O)O` [OXALIC ACID], for which the pIC50 was less than 4.70 and the IC50 is greater than 20 µM.
Regarding `O=C(O)CC(=O)C(=O)O` [OXALOACETATE], the pIC50 was less than 4.70 and the IC50 is greater than 20 µM.
Regarding `COc1ccc2c(c1)c(CC(=O)NO)c(C)n2C(=O)c1ccc(Cl)cc1` [OXAMETACIN], the pIC50 was less than 4.70 and the IC50 is greater than 20 µM.
Turning to `CC(C)NCC1CCc2cc(CO)c([N+](=O)[O-])cc2N1` (centres undefined) [OXAMNIQUINE], the pIC50 is less than 4.70 and the IC50 is greater than 20 µM.
Regarding `C[C@]12COC(=O)C[C@@H]1CC[C@@H]1[C@@H]2CC[C@@]2(C)[C@H]1CC[C@]2(C)O` [OXANDROLONE], the pIC50 is less than 4.70 and the IC50 is greater than 20 µM.
In the case of `O=C1Nc2ccc(Cl)cc2C(c2ccccc2)=NC1O` (centres undefined) [OXAZEPAM], the pIC50 is less than 4.70 and the IC50 was greater than 20 µM.
With `NC(=O)N1c2ccccc2CC(=O)c2ccccc21` [OXCARBAZEPINE], the pIC50 is less than 4.70 and the IC50 was greater than 20 µM.
Turning to `CNCC(O)c1ccc(O)cc1` (centres undefined) [OXEDRINE], the pIC50 is less than 4.70 and the IC50 was greater than 20 µM.
For `CCN(CC)CCOCCOC(=O)C(CC)(CC)c1ccccc1` [OXELADIN], the pIC50 is less than 4.70 and the IC50 is greater than 20 µM.
In the case of `COC(=O)Nc1nc2cc([S+]([O-])c3ccccc3)ccc2[nH]1` (centres undefined) [OXFENDAZOLE], the pIC50 was less than 4.70 and the IC50 was greater than 20 µM.
For `CCCOc1ccc2[nH]c(NC(=O)OC)nc2c1` [OXIBENDAZOLE] the same measures were less than 4.70 and greater than 20 µM.
Turning to `Clc1ccc(CO/N=C(\Cn2ccnc2)c2ccc(Cl)cc2Cl)c(Cl)c1` [OXICONAZOLE], the pIC50 was less than 4.70 and the IC50 was greater than 20 µM.
In the case of `O=c1[nH]c2ccccc2n1C1CCN(CCOc2ccccc2)CC1` [OXIPEROMIDE], the pIC50 is less than 4.70 and the IC50 was greater than 20 µM.
`Cc1[nH]cnc1CSCCNc1nc(=O)c(Cc2ccc3c(c2)OCO3)c[nH]1` [OXMETIDINE]: the pIC50 was less than 4.70 and the IC50 was greater than 20 µM.
For the compound `CCN(CC)CCc1nc(-c2ccccc2)no1` [OXOLAMINE], the negative logarithm of the IC50 (pIC50) was less than 4.70 and the IC50 was greater than 20 µM.
For `CCn1cc(C(=O)O)c(=O)c2cc3c(cc21)OCO3` [OXOLINIC ACID], the pIC50 was less than 4.70 and the IC50 was greater than 20 µM.
Take `O=C1CCCN1CC#CCN1CCCC1` [OXOTREMORINE]: the pIC50 is less than 4.70 and the IC50 is greater than 20 µM.
Consider `C=CCOc1ccccc1OCC(O)CNC(C)C` (centres undefined) [OXPRENOLOL], for which the pIC50 was less than 4.70 and the IC50 was greater than 20 µM.
The matching figures for `O=C(O)CCCO` [OXYBATE]: less than 4.70 and greater than 20 µM.
Take `COc1ccc(C(=O)c2ccccc2)c(O)c1` [OXYBENZONE]: the negative-log IC50 (pIC50) is less than 4.70 and the IC50 was greater than 20 µM.
`CCN(CC)CC#CCOC(=O)C(O)(c1ccccc1)C1CCCCC1` (centres undefined) [OXYBUTYNIN]: the negative-log IC50 (pIC50) was less than 4.70 and the IC50 was greater than 20 µM.
With `O=C(O)c1c(O)c(-c2ccccc2)nc2ccccc12` [OXYCINCHOPHEN], the pIC50 is less than 4.70 and the IC50 is greater than 20 µM.
The matching figures for `O=C(Nc1cc(Cl)cc(Cl)c1O)c1c(O)c(Cl)cc(Cl)c1Cl` [OXYCLOZANIDE]: less than 4.70 and greater than 20 µM.
Regarding `COc1ccc2c3c1O[C@H]1C(=O)CC[C@@]4(O)[C@@H](C2)N(C)CC[C@]314` [OXYCODONE], the pIC50 was less than 4.70 and the IC50 is greater than 20 µM.
For `Cc1cc(C(C)(C)C)c(O)c(C)c1CC1=NCCN1` [OXYMETAZOLINE], the pIC50 is less than 4.70 and the IC50 was greater than 20 µM.
For `COc1cc2[nH]c(C)c(CCN3CCN(c4ccccc4)CC3)c2cc1OC` [OXYPERTINE], the pIC50 is less than 4.70 and the IC50 is greater than 20 µM.
As to `CCCCC1C(=O)N(c2ccccc2)N(c2ccc(O)cc2)C1=O` (centres undefined) [OXYPHENBUTAZONE ANHYDROUS], the pIC50 is less than 4.70 and the IC50 is greater than 20 µM.
In the case of `CC(=O)Oc1ccc(C2(c3ccc(OC(C)=O)cc3)C(=O)Nc3ccccc32)cc1` [OXYPHENISATIN ACETATE], the pIC50 was less than 4.70 and the IC50 was greater than 20 µM.
As for `O=C1Nc2ccccc2C1(c1ccc(O)cc1)c1ccc(O)cc1` [OXYPHENISATINE], the negative-log IC50 (pIC50) was less than 4.70 and the IC50 is greater than 20 µM.
Turning to `CC[N+](C)(CC)CCOC(=O)C(O)(c1ccccc1)C1CCCCC1` (centres undefined) [OXYPHENONIUM], the pIC50 is less than 4.70 and the IC50 was greater than 20 µM.
Take `Oc1nc(O)c2cn[nH]c2n1` [OXYPURINOL]: the pIC50 was less than 4.70 and the IC50 is greater than 20 µM.
For `Oc1cccc2cccnc12` [OXYQUINOLINE] the same measures were less than 4.70 and greater than 20 µM.
For `CN(C)[C@@H]1C(O)=C(C(N)=O)C(=O)[C@@]2(O)C(O)=C3C(=O)c4c(O)cccc4[C@@](C)(O)[C@H]3[C@H](O)[C@@H]12` [OXYTETRACYCLINE] the same measures were less than 4.70 and greater than 20 µM.
Turning to `O=C(O)/C=C/c1ccc(Cn2ccnc2)cc1` [OZAGREL], the pIC50 was less than 4.70 and the IC50 was greater than 20 µM.
For `CC(C)Oc1ccc(-c2nc(-c3cccc4c3CC[C@@H]4NCCO)no2)cc1C#N` [OZANIMOD], the pIC50 was less than 4.70 and the IC50 was greater than 20 µM.
In the case of `Cc1ccc(S(N)(=O)=O)cc1` [P-TOLUENESULFONAMIDE], the negative logarithm of the IC50 (pIC50) was less than 4.70 and the IC50 was greater than 20 µM.
For the compound `COc1cc2c(cc1-c1cc3cc4ccoc4cc3oc1=O)OCO2` [PACHYRRIZINE], the pIC50 is less than 4.70 and the IC50 was greater than 20 µM.
As to `C1=N/C2=N/c3ccc(OCCN4CCCC4)c(c3)COC/C=C/COCc3cccc(c3)C(=C1)N2` [PACRITINIB], the pIC50 was less than 4.70 and the IC50 is greater than 20 µM.
On to `COc1ccc(C(C)=O)c(O)c1` [PAEONOL], for which the pIC50 was less than 4.70 and the IC50 is greater than 20 µM.
Take `CC(C)n1nc(-c2cccc(Cl)c2Cl)c(N)nc1=N` [PALATRIGINE]: the pIC50 is less than 4.70 and the IC50 was greater than 20 µM.
For the compound `CC(=O)c1c(C)c2cnc(Nc3ccc(N4CCNCC4)cn3)nc2n(C2CCCC2)c1=O` [PALBOCICLIB], the negative logarithm of the IC50 (pIC50) is less than 4.70 and the IC50 is greater than 20 µM.
For `O=P(O)(NCCCl)NCCCl` [PALIFOSFAMIDE] the same measures were less than 4.70 and greater than 20 µM.
For the compound `CCCCCCCCCCCCCCCC(=O)NCCO` [PALMIDROL], the pIC50 is less than 4.70 and the IC50 is greater than 20 µM.
For `CCCCCCCCCCCCCCCC(=O)O` [PALMITIC ACID] the same measures were less than 4.70 and greater than 20 µM.
The matching figures for `COc1cc2c(cc1OC)-c1cc3ccc(OC)c(OC)c3c[n+]1CC2` [PALMITINE]: less than 4.70 and greater than 20 µM.
Turning to `CCCCCCCCCCCCCCC1(C(=O)O)CO1` (centres undefined) [PALMOXIRATE], the pIC50 was less than 4.70 and the IC50 is greater than 20 µM.
